Results as given in patent US12435051B2, “Dual modulator of mGluR5 and 5-HT2A receptor, and use thereof” (Vivozon Inc., priority 2020, dated 2025).

Tests used:
[1] = target: T1, human 5-HT2AR (Homo sapiens, UniProt P28223); assay: HTRF-based IP1 accumulation assay (5-HT2AR antagonistic effect); type: cell-based; details: HEK293 cells overexpressing human 5-HT2AR; serotonin at EC80
T1 construct: expressed in transfected cells; host or cells: HEK293
Description: The 5-HT2AR antagonistic effect of the test compounds was confirmed by measuring the production amount of IP1 using the HEK293 cell line permanently overexpressing the human 5-HT2AR. The test compounds were dissolved in 100% DMSO to a final concentration of 10 mM. The starting concentration of 10 μM was prepared from the stock solution, followed by serial dilutions to prepare working solutions in a buffer containing lithium chloride (LiCl). The cells and compounds prepared in the test buffer were placed in a 96-well plate and incubated at room temperature for 10 minutes. Serotonin of EC80 concentration was added, followed by incubation at 37° C. for 30 minutes in a light-shielding state. To measure IP1 accumulation in cells, JP1-d2 acceptor and IP1-Cryptate donor-which are HTRF-based substances for fluorescence signals-were added and incubated for 1 hour at room temperature in a light-shielded state. The fluorescent emission signals of acceptor and donor were detected, and HTRF ratio values were substracted by mean value of serotonin control. The percentage of activation was calculated by normalization of the serotonin control (0%) and IP1 control (100%). The IC50 values of the test compounds are represented in Table 1. (+: 1,000-2,000 nM, ++: 500-1,000 nM, +++: 100-500 nM, ++++: less than 100 nM).

[2] = target: T2, mGluR5 (Homo sapiens, UniProt P41594); assay: Fluorescence-based Ca2+ mobilization assay; type: cell-based; details: HEK293 cells overexpressing mGluR5; L-glutamate at EC80
T2 construct: expressed in transfected cells; host or cells: HEK293
T2 sequence (P41594 21-1212): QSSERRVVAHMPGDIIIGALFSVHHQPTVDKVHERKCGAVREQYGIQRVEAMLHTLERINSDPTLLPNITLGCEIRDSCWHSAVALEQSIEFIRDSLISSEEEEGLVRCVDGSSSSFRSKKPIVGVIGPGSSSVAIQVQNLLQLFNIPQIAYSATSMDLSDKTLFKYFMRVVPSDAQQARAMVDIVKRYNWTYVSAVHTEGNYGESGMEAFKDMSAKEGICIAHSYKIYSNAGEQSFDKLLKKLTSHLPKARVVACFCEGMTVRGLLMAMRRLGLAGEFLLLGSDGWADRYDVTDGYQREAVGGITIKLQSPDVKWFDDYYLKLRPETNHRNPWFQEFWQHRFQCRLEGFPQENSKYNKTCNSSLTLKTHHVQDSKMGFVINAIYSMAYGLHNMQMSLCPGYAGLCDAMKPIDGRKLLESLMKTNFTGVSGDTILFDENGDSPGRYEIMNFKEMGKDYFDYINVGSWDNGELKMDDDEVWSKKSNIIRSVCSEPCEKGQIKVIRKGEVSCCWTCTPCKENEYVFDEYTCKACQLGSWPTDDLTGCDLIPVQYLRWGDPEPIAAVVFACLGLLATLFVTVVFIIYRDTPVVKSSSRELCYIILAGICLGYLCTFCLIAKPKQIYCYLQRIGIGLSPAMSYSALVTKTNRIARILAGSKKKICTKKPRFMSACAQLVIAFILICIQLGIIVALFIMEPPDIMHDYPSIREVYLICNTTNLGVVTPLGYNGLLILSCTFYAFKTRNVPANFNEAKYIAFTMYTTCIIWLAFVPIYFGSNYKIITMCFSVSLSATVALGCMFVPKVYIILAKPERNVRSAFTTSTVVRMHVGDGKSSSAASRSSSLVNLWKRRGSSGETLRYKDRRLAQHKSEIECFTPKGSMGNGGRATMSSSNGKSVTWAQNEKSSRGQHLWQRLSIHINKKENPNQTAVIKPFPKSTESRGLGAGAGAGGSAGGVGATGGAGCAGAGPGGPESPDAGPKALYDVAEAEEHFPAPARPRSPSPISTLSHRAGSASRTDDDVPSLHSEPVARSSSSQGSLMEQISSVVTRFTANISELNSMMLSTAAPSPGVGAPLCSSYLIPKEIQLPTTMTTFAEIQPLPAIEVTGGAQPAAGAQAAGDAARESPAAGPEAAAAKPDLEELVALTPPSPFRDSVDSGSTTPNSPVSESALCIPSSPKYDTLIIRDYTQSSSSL
Description: In order to measure the activity on the mGluR5, an experiment was carried out to check the change in the intracellular Ca^2+ level using the HEK293 cell line permanently overexpressing the mGluR5. The cells in the cell culture medium were aliquoted into a 384-well plate coated with poly-D-lysine and cultured in a 37° C. incubator supplied with 5% CO2. The next day, the medium was removed and a dye loading buffer—in which a reagent capable of measuring Ca^2+ was dissolved—was added, and then incubated at 37° C. for 60 minutes. The test compounds were dissolved in 100% DMSO at a final concentration of 10 mM to make a stock solution. The starting concentration of […] was prepared from the stock solution, followed by serial dilutions to prepare working solutions (test compound working solutions). The test compound working solutions were added to the cells that were incubated in the dye loading buffer, which were maintained for 30 minutes at room temperature in a light-shielding state before measurement. The Ca^2+ level change induced by L-glutamate at EC80 concentration was measured for 2 minutes using FLIPR Tetra (MDS Analytical Technologies). The fluorescent Ca^2+ signal values in the presence of the test compounds were normalized to the fluorescent signal elicited by […] concentration of L-glutamate as 100% and that elicited by vehicle as 0% to estimate % inhibition of the test compounds. The efficacy of the test compounds was calculated as IC50 values and represented in Table 1. (+: 1,000-2,000 nM, ++: 500-1,000 nM, +++: 100-500 nM, ++++: less than 100 nM).

T1 sequence (P28223 whole entry): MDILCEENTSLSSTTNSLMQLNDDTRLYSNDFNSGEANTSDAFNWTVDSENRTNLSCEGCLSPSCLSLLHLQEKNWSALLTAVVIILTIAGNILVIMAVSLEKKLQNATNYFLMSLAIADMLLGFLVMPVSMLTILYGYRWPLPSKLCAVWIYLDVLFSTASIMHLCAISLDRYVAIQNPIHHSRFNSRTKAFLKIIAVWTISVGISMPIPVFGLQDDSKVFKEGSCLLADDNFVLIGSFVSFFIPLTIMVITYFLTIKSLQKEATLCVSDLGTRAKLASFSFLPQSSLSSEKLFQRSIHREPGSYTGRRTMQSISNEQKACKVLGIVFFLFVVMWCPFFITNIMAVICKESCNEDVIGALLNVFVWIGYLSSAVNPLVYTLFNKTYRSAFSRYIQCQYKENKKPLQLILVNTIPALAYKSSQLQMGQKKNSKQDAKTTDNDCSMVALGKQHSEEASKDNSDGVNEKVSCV

**Q.** Which IC50 [1] does the source give for `O=C(O)CCC1(CNC(=O)c2ccc(C#Cc3ccccc3F)cc2)CCOCC1` [Example 60, 3-(4-((4-((2-fluorophenyl)ethynyl)benzamido)methyl)tetrahydro-2H-pyran-4-yl)propanoic acid] here?
**A.** 500 to 1000 nM

**Q.** What about the IC50 [2] of the same compound?
**A.** 500 to 1000 nM

**Q.** For `O=C(O)CCC1(CNC(=O)c2ccc(C#Cc3ccccc3F)cc2)CCCCC1` [Example 61, 3-(1-((4-((2-fluorophenyl)ethynyl)benzamido)methyl)cyclohexyl)propanoic acid], which IC50 [1] is on record?
**A.** 500 to 1000 nM

**Q.** And the IC50 [2]?
**A.** 1000 to 2000 nM

**Q.** For `O=C(NCC1(CCCO)CCCCC1)c1ccc(C#Cc2ccccc2F)cc1` [Example 62, 4-((2-fluorophenyl)ethynyl)-N-((1-(3-hydroxypropyl)cyclohexyl)methyl)benzamide], which IC50 [1] is on record?
**A.** 1000 to 2000 nM

**Q.** What about the IC50 [2] of the same compound?
**A.** 100 to 500 nM

**Q.** `CC1(C)CC(CNC(=O)c2ccc(C#Cc3ccccc3F)cc2)CCO1` (stereo not shown) [Example 67, N-((2,2-dimethyltetrahydro-2H-pyran-4-yl)methyl)-4-((2-fluorophenyl)ethynyl)benzamide] was tested. Which IC50 [1] did it give?
**A.** 500 to 1000 nM

**Q.** What about the IC50 [2] of the same compound?
**A.** 100 to 500 nM

**Q.** For `[2H]C([2H])(NC(=O)c1ccc(C#Cc2ccccc2F)cc1)C1CCOCC1` [Example 68, 4-((2-fluorophenyl)ethynyl)-N-((tetrahydro-2H-pyran-4-yl)methyl-d2)benzamide], which IC50 [1] is on record?
**A.** 500 to 1000 nM

**Q.** What about the IC50 [2] of the same compound?
**A.** 100 to 500 nM

**Q.** Which IC50 [1] does the source give for `CC1(C)CC(CNC(=O)c2ccc(C#Cc3ccccc3F)cc2)CO1` (stereo not shown) [Example 70, N-((5,5-dimethyltetrahydrofuran-3-yl)methyl)-4-((2-fluorophenyl)ethynyl)benzamide] here?
**A.** 500 to 1000 nM

**Q.** What about the IC50 [2] of the same compound?
**A.** 100 to 500 nM

**Q.** Which IC50 [1] does the source give for `O=C(NCC1CCCO1)c1ccc(C#Cc2ccccc2F)cc1` (stereo not shown) [Example 71, 4-((2-fluorophenyl)ethynyl)-N-((tetrahydrofuran-2-yl)methyl)benzamide] here?
**A.** 500 to 1000 nM

**Q.** And the IC50 [2]?
**A.** < 100 nM

**Q.** How did the IC50 [1] turn out when `O=C(NCC1(F)CCCCC1)c1ccc(C#Cc2ccc(F)cc2F)cc1` [Example 73, 4-((2,4-difluorophenyl)ethynyl)-N-((1-fluorocyclohexyl)methyl)benzamide] was run?
**A.** 1000 to 2000 nM

**Q.** And the IC50 [2]?
**A.** < 100 nM

**Q.** For `COC(=O)CC1(CNC(=O)c2ccc(C#Cc3ccccc3F)cc2)CCCCC1` [Example 74, methyl 2-(1-((4-((2-fluorophenyl)ethynyl)benzamido)methyl)cyclohexyl)acetate], which IC50 [1] is on record?
**A.** 500 to 1000 nM

**Q.** And the IC50 [2]?
**A.** 100 to 500 nM

**Q.** `COC(=O)CC1(CNC(=O)c2ccc(C#Cc3ccccc3F)cc2)CCOCC1` [Example 75, methyl 2-(4-((4-((2-fluorophenyl)ethynyl)benzamido)methyl)tetrahydro-2H-pyran-4-yl)acetate] was tested. Which IC50 [1] did it give?
**A.** 500 to 1000 nM

**Q.** What about the IC50 [2] of the same compound?
**A.** 100 to 500 nM

**Q.** With `O=C(O)CC1(CNC(=O)c2ccc(C#Cc3ccccc3F)cc2)CCCCC1` [Example 76, 2-(1-((4-((2-fluorophenyl)ethynyl)benzamido)methyl)cyclohexyl)acetic acid] as the compound, how does the IC50 [1] read?
**A.** 100 to 500 nM

**Q.** What about the IC50 [2] of the same compound?
**A.** 500 to 1000 nM

**Q.** How did the IC50 [1] turn out when `NC(=O)CC1(CNC(=O)c2ccc(C#Cc3ccccc3F)cc2)CCCCC1` [Example 77, N-((1-(2-amino-2-oxoethyl)cyclohexyl)methyl)-4-((2-fluorophenyl)ethynyl)benzamide] was run?
**A.** 1000 to 2000 nM

**Q.** What about the IC50 [2] of the same compound?
**A.** < 100 nM

**Q.** How did the IC50 [1] turn out when `NC(=O)CC1(CNC(=O)c2ccc(C#Cc3ccccc3F)cc2)CCOCC1` [Example 78, N-((4-(2-amino-2-oxoethyl)tetrahydro-2H-pyran-4-yl)methyl)-4-((2-fluorophenyl)ethynyl)benzamide] was run?
**A.** 1000 to 2000 nM

**Q.** And the IC50 [2]?
**A.** 100 to 500 nM

**Q.** How did the IC50 [1] turn out when `O=C(CC1(CNC(=O)c2ccc(C#Cc3ccccc3F)cc2)CCCCC1)NO` [Example 79, 4-((2-fluorophenyl)ethynyl)-N-((1-(2-(hydroxyamino)-2-oxoethyl)cyclohexyl)methyl)benzamide] was run?
**A.** 1000 to 2000 nM

**Q.** What about the IC50 [2] of the same compound?
**A.** 100 to 500 nM

**Q.** `CNC(=O)CC1(CNC(=O)c2ccc(C#Cc3ccccc3F)cc2)CCCCC1` [Example 80, 4-((2-fluorophenyl)ethynyl)-N-((1-(2-(methylamino)-2-oxoethyl)cyclohexyl)methyl)benzamide] was tested. Which IC50 [1] did it give?
**A.** 100 to 500 nM

**Q.** And the IC50 [2]?
**A.** 100 to 500 nM

**Q.** Which results are given for `CN(C)C(=O)CC1(CNC(=O)c2ccc(C#Cc3ccccc3F)cc2)CCCCC1` [Example 81, N-((1-(2-(dimethylamino)-2-oxoethyl)cyclohexyl)methyl)-4-((2-fluorophenyl)ethynyl)benzamide]?
**A.** IC50 [1]: 100 to 500 nM; IC50 [2]: 500 to 1000 nM

**Q.** What does the source list for `CC1(CNC(=O)c2ccc(C#Cc3ccccc3F)c(F)c2)COC1` [Example 84, 3-fluoro-4-((2-fluorophenyl)ethynyl)-N-((3-methyloxetan-3-yl)methyl)benzamide]?
**A.** IC50 [1]: 1000 to 2000 nM; IC50 [2]: 1000 to 2000 nM

**Q.** What does the source list for `O=C(NC[C@H]1C[C@@H](O)C1)c1ccc(C#Cc2ccccc2F)cc1` [Example 85, 4-((2-fluorophenyl)ethynyl)-N-(((1s,3s)-3-hydroxycyclobutyl)methyl)benzamide]?
**A.** IC50 [1]: 500 to 1000 nM; IC50 [2]: 100 to 500 nM

**Q.** What does the source list for `O=C(NC[C@H]1C[C@H](O)C1)c1ccc(C#Cc2ccccc2F)cc1` [Example 86, 4-((2-fluorophenyl)ethynyl)-N-(((1r,3r)-3-hydroxycyclobutyl)methyl)benzamide]?
**A.** IC50 [1]: 1000 to 2000 nM; IC50 [2]: 100 to 500 nM

**Q.** Which results are given for `O=C(NCC1CC(F)(F)C1)c1ccc(C#Cc2ccccc2)cc1` [Example 90, N-((3,3-difluorocyclobutyl)methyl)-4-(phenylethynyl)benzamide]?
**A.** IC50 [1]: 100 to 500 nM; IC50 [2]: < 100 nM

**Q.** `O=C(NC[C@@H]1CCCOC1)c1ccc(C#Cc2ccccc2F)cc1` [Example 91, (S)-4-((2-fluorophenyl)ethynyl)-N-((tetrahydro-2H-pyran-3-yl)methyl)benzamide] was tested. Which IC50 [1] did it give?
**A.** 1000 to 2000 nM

**Q.** And the IC50 [2]?
**A.** < 100 nM

**Q.** What does the source list for `O=C(NC[C@@H]1CCOC1)c1ccc(C#Cc2ccccc2F)cc1` [Example 93, (S)-4-((2-fluorophenyl)ethynyl)-N-((tetrahydrofuran-3-yl)methyl)benzamide]?
**A.** IC50 [1]: 100 to 500 nM; IC50 [2]: 100 to 500 nM

**Q.** `[2H]C(NC(=O)c1ccc(C#Cc2ccccc2F)cc1)C1(C)COC1` (stereo not shown) [Example 95, 4-((2-fluorophenyl)ethynyl)-N-((3-methyloxetan-3-yl)methyl-d)benzamide] was tested. Which IC50 [1] did it give?
**A.** 500 to 1000 nM

**Q.** And the IC50 [2]?
**A.** < 100 nM

**Q.** How did the IC50 [1] turn out when `O=C(NCC1(N2CCOCC2)CCC1)c1ccc(C#Cc2ccccc2F)cc1` [Example 96, 4-((2-fluorophenyl)ethynyl)-N-((1-morpholinocyclobutyl)methyl)benzamide] was run?
**A.** 500 to 1000 nM

**Q.** What about the IC50 [2] of the same compound?
**A.** 1000 to 2000 nM

**Q.** Which results are given for `CC1(CNC(=O)c2ccc(C#Cc3ccccc3F)cc2)CC(F)(F)C1` [Example 97, N-((3,3-difluoro-1-methylcyclobutyl)methyl)-4-((2-fluorophenyl)ethynyl)benzamide]?
**A.** IC50 [1]: 1000 to 2000 nM; IC50 [2]: < 100 nM

**Q.** For `CC1(CNC(=O)c2ccc(C#Cc3ccccc3F)cc2)CCCO1` (stereo not shown) [Example 98, 4-((2-fluorophenyl)ethynyl)-N-((2-methyltetrahydrofuran-2-yl)methyl)benzamide], which IC50 [1] is on record?
**A.** 500 to 1000 nM

**Q.** And the IC50 [2]?
**A.** < 100 nM

**Q.** Which IC50 [1] does the source give for `O=C(NC[C@H]1CCCOC1)c1ccc(C#Cc2ccc(F)cc2)cc1` [Example 99, (R)-4-((4-fluorophenyl)ethynyl)-N-((tetrahydro-2H-pyran-3-yl)methyl)benzamide] here?
**A.** 100 to 500 nM

**Q.** And the IC50 [2]?
**A.** < 100 nM

**Q.** What does the source list for `O=C(NC[C@@H]1CCCOC1)c1ccc(C#Cc2ccc(F)cc2)cc1` [Example 100, (S)-4-((4-fluorophenyl)ethynyl)-N-((tetrahydro-2H-pyran-3-yl)methyl)benzamide]?
**A.** IC50 [1]: 500 to 1000 nM; IC50 [2]: 100 to 500 nM

**Q.** With `O=C(NC[C@H]1CCOC1)c1ccc(C#Cc2ccc(F)cc2)cc1` [Example 101, (R)-4-((4-fluorophenyl)ethynyl)-N-((tetrahydrofuran-3-yl)methyl)benzamide] as the compound, how does the IC50 [1] read?
**A.** 100 to 500 nM

**Q.** What about the IC50 [2] of the same compound?
**A.** < 100 nM

**Q.** Which IC50 [1] does the source give for `O=C(NC[C@@H]1CCOC1)c1ccc(C#Cc2ccc(F)cc2)cc1` [Example 102, (S)-4-((4-fluorophenyl)ethynyl)-N-((tetrahydrofuran-3-yl)methyl)benzamide] here?
**A.** < 100 nM

**Q.** And the IC50 [2]?
**A.** 100 to 500 nM

**Q.** Which results are given for `O=C(NCC1(F)COC1)c1ccc(C#Cc2ccccc2F)cc1` [Example 103, N-((3-fluorooxetan-3-yl)methyl)-4-((2-fluorophenyl)ethynyl)benzamide]?
**A.** IC50 [1]: 1000 to 2000 nM; IC50 [2]: 1000 to 2000 nM

**Q.** With `CC1(CNC(=O)c2ccc(C#Cc3ccc(F)cc3)cc2)CCCCC1` [Example 104, 4-((4-fluorophenyl)ethynyl)-N-((1-methylcyclohexyl)methyl)benzamide] as the compound, how does the IC50 [1] read?
**A.** 1000 to 2000 nM

**Q.** What about the IC50 [2] of the same compound?
**A.** < 100 nM
